Data taken from ChEMBL document CHEMBL1201861, “Genomics of Drug Sensitity in Cancer screening data, Wellcome Trust Sanger Institute”.

Experiments:
Assay in all cases: cells
NCI-H596 = format: functional, cell-based; settings: Homo sapiens;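 note: growth inhibition of NCI-H596 cells, read out with a cell viability assay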
Description: SANGER: Inhibition of human NCI-H596 cell growth in a cell viability assay.

A673 = format: functional, cell-based; settings: Homo sapiens;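 note: growth inhibition of human A673 cells, read out through a cell viability assay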
Description: SANGER: Inhibition of human A673 cell growth in a cell viability assay.

MOLT-13 = format: functional, cell-based; settings: Homo sapiens;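 note: IC50 for suppression of MOLT-13 cell growth, read out with a cell viability assay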
Description: SANGER: Inhibition of human MOLT-13 cell growth in a cell viability assay.

ZR-75-30 = format: functional, cell-based; settings: Homo sapiens;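 note: growth inhibition of ZR-75-30 cells, measured with a cell viability readout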
Description: SANGER: Inhibition of human ZR-75-30 cell growth in a cell viability assay.

IGR-1 = format: functional, cell-based; settings: Homo sapiens;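 note: growth inhibition of human IGR-1 cells, read out with a cell viability assay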
Description: SANGER: Inhibition of human IGR-1 cell growth in a cell viability assay.

D-423MG = format: functional, cell-based; settings: Homo sapiens
Description: SANGER: Inhibition of human D-423MG cell growth in a cell viability assay.

H-EMC-SS = format: functional, cell-based; settings: Homo sapiens
Description: SANGER: Inhibition of human H-EMC-SS cell growth in a cell viability assay.

BHT-101 = format: functional, cell-based; settings: Homo sapiens
Description: SANGER: Inhibition of human BHT-101 cell growth in a cell viability assay.

MHH-ES-1 = format: functional, cell-based; settings: Homo sapiens;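 note: cell growth inhibition measured by a cell viability assay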
Description: SANGER: Inhibition of human MHH-ES-1 cell growth in a cell viability assay.

COLO-792 = format: functional, cell-based; settings: Homo sapiens
Description: SANGER: Inhibition of human COLO-792 cell growth in a cell viability assay.

U-251 = format: functional, cell-based; settings: Homo sapiens;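 note: growth inhibition of human U-251 cells, read out through a cell viability assay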
Description: SANGER: Inhibition of human U251 cell growth in a cell viability assay.

HT-1080 = format: functional, cell-based; settings: Homo sapiens
Description: SANGER: Inhibition of human HT-1080 cell growth in a cell viability assay.

OC-314 = format: functional, cell-based; settings: Homo sapiens
Description: SANGER: Inhibition of human OC-314 cell growth in a cell viability assay.

KNS-62 = format: functional, cell-based; settings: Homo sapiens;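 note: inhibition of cell growth, read out with a cell viability assay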
Description: SANGER: Inhibition of human KNS-62 cell growth in a cell viability assay.

D-566MG = format: functional, cell-based; settings: Homo sapiens
SCC-25 = format: functional, cell-based; settings: Homo sapiens;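 note: growth inhibition of SCC-25 cells, measured with a cell viability assay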
Description: SANGER: Inhibition of human SCC-25 cell growth in a cell viability assay.

BT-549 = format: functional, cell-based; settings: Homo sapiens
Description: SANGER: Inhibition of human BT-549 cell growth in a cell viability assay.

8505C = format: functional, cell-based; settings: Homo sapiens
Description: SANGER: Inhibition of human 8505C cell growth in a cell viability assay.

RVH-421 = format: functional, cell-based; settings: Homo sapiens
Description: SANGER: Inhibition of human RVH-421 cell growth in a cell viability assay.

NCI-H727 = format: functional, cell-based; settings: Homo sapiens;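 note: growth inhibition of human NCI-H727 cells, read out with a cell viability assay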
Description: SANGER: Inhibition of human NCI-H727 cell growth in a cell viability assay.

NCI-H2405 = format: functional, cell-based; settings: Homo sapiens;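 note: growth inhibition of the human cell line, read out with a cell viability assay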
Description: SANGER: Inhibition of human NCI-H2405 cell growth in a cell viability assay.

D-392MG = format: functional, cell-based; settings: Homo sapiens
COLO-679 = format: functional, cell-based; settings: Homo sapiens
Description: SANGER: Inhibition of human COLO-679 cell growth in a cell viability assay.

NCI-H358 = format: functional, cell-based; settings: Homo sapiens;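 note: growth inhibition of NCI-H358 human cells, read out with a cell viability assay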
Description: SANGER: Inhibition of human NCI-H358 cell growth in a cell viability assay.

HuO-3N1 = format: functional, cell-based; settings: Homo sapiens;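 note: cell viability readout used to measure how strongly compounds suppress proliferation of human HuO-3N1 cells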
Description: SANGER: Inhibition of human HuO-3N1 cell growth in a cell viability assay.

KP-N-YN = format: functional, cell-based; settings: Homo sapiens;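 note: growth inhibition of KP-N-YN cells, read out with a cell viability assay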
Description: SANGER: Inhibition of human KP-N-YN cell growth in a cell viability assay.

DoTc2-4510 = format: functional, cell-based; settings: Homo sapiens
OVCAR-8 = format: functional, cell-based; settings: Homo sapiens;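 note: growth inhibition of human OVCAR-8 cells, read out by a cell viability assay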
Description: SANGER: Inhibition of human OVCAR-8 cell growth in a cell viability assay.

HCC1419 = format: functional, cell-based; settings: Homo sapiens;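 note: growth inhibition of human HCC1419 cells, read out as cell viability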
Description: SANGER: Inhibition of human HCC1419 cell growth in a cell viability assay.

SNU-449 = format: functional, cell-based; settings: Homo sapiens
Description: SANGER: Inhibition of human SNU-449 cell growth in a cell viability assay.

TI-73 = format: functional, cell-based; settings: Homo sapiens;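 note: cell viability assay measuring how much compounds suppress growth of the cultured cell line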
Description: SANGER: Inhibition of human TI-73 cell growth in a cell viability assay.

NCI-H2029 = format: functional, cell-based; settings: Homo sapiens;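 note: Read-out is a viability assay on the cultured cells, and IC50 is the concentration that suppresses cell growth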
Description: SANGER: Inhibition of human NCI-H2029 cell growth in a cell viability assay.

EGI-1 = format: functional, cell-based; settings: Homo sapiens;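 note: cell viability readout used to gauge growth inhibition of EGI-1 cells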
Description: SANGER: Inhibition of human EGI-1 cell growth in a cell viability assay.

CFPAC-1 = format: functional, cell-based; settings: Homo sapiens;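 note: cell viability readout used to gauge suppression of CFPAC-1 cell proliferation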
Description: SANGER: Inhibition of human CFPAC-1 cell growth in a cell viability assay.

BPH-1 = format: functional, cell-based; settings: Homo sapiens;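 note: cell viability assay measuring growth inhibition of human BPH-1 cells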
Description: SANGER: Inhibition of human BPH-1 cell growth in a cell viability assay.

RPMI-7951 = format: functional, cell-based; settings: Homo sapiens
Description: SANGER: Inhibition of human RPMI-7951 cell growth in a cell viability assay.

D-336MG = format: functional, cell-based, Homo sapiens; settings: Homo sapiens, D-336MG
Description: SANGER: Inhibition of human D-336MG cell growth in a cell viability assay.

G-361 = format: functional, cell-based; settings: Homo sapiens

SMILES	IC50 (NCI-H596) [nM]	IC50 (A673) [nM]	IC50 (MOLT-13) [nM]	IC50 (ZR-75-30) [nM]	IC50 (IGR-1) [nM]	IC50 (D-423MG) [nM]	IC50 (H-EMC-SS) [nM]	IC50 (BHT-101) [nM]	IC50 (MHH-ES-1) [nM]	IC50 (COLO-792) [nM]	IC50 (U-251) [nM]	IC50 (HT-1080) [nM]	IC50 (OC-314) [nM]	IC50 (KNS-62) [nM]	IC50 (D-566MG) [nM]	IC50 (SCC-25) [nM]	IC50 (BT-549) [nM]	IC50 (8505C) [nM]	IC50 (RVH-421) [nM]	IC50 (NCI-H727) [nM]	further results
CC1(C)CCC(c2ccc(Cl)cc2)=C(CN2CCN(c3ccc(C(=O)NS(=O)(=O)c4ccc(N[C@H](CCN5CCOCC5)CSc5ccccc5)c(S(=O)(=O)C(F)(F)F)c4)cc3)CC2)C1 [NAVITOCLAX]	> 2000	> 2000	466	> 2000	> 2000	> 2000	> 2000	> 2000	> 2000	1200	> 2000	> 2000	> 2000	> 2000	> 2000	> 2000	> 2000	> 2000	> 2000	> 2000	IC50 (NCI-H2405): > 2000 nM; IC50 (D-392MG): > 2000 nM; IC50 (COLO-679): > 2000 nM; IC50 (NCI-H358): > 2000 nM; IC50 (HuO-3N1): > 2000 nM; IC50 (KP-N-YN): 236 nM; IC50 (DoTc2-4510): > 2000 nM; IC50 (OVCAR-8): > 2000 nM; IC50 (HCC1419): > 2000 nM; IC50 (SNU-449): > 2000 nM; IC50 (TI-73): > 2000 nM; IC50 (NCI-H2029): > 2000 nM; IC50 (EGI-1): > 2000 nM; IC50 (CFPAC-1): > 2000 nM; IC50 (BPH-1): > 2000 nM; IC50 (RPMI-7951): > 2000 nM; IC50 (D-336MG): > 2000 nM
CN(C)CCOc1ccc(-c2nc(-c3ccncc3)c(-c3ccc4c(c3)CC/C4=N\O)[nH]2)cc1 [SB590885]	> 5000	> 5000	> 5000	> 5000	> 5000	> 5000	351	1630	> 5000	> 5000	> 5000	> 5000	> 5000	> 5000	> 5000	> 5000	> 5000	> 5000	621	> 5000	IC50 (NCI-H2405): > 5000 nM; IC50 (D-392MG): > 5000 nM; IC50 (COLO-679): 386 nM; IC50 (HuO-3N1): > 5000 nM; IC50 (KP-N-YN): > 5000 nM; IC50 (DoTc2-4510): > 5000 nM; IC50 (OVCAR-8): > 5000 nM; IC50 (HCC1419): > 5000 nM; IC50 (SNU-449): > 5000 nM; IC50 (TI-73): > 5000 nM; IC50 (NCI-H2029): > 5000 nM; IC50 (EGI-1): > 5000 nM; IC50 (CFPAC-1): > 5000 nM; IC50 (BPH-1): > 5000 nM; IC50 (RPMI-7951): > 5000 nM
CC1=C(/C=C/C(C)=C/C=C/C(C)=C/C(=O)O)C(C)(C)CCC1 [TRETINOIN]	> 10000	> 10000	1150	> 10000	> 10000	> 10000	> 10000	> 10000	> 10000	> 10000	> 10000	> 10000	> 10000	> 10000	> 10000	> 10000	> 10000	> 10000	> 10000	> 10000	IC50 (G-361): > 10000 nM; IC50 (NCI-H2405): > 10000 nM; IC50 (D-392MG): > 10000 nM; IC50 (COLO-679): > 10000 nM; IC50 (NCI-H358): > 10000 nM; IC50 (HuO-3N1): 832 nM; IC50 (KP-N-YN): > 10000 nM; IC50 (DoTc2-4510): > 10000 nM; IC50 (OVCAR-8): > 10000 nM; IC50 (HCC1419): > 10000 nM; IC50 (SNU-449): > 10000 nM; IC50 (TI-73): > 10000 nM; IC50 (NCI-H2029): > 10000 nM; IC50 (EGI-1): > 10000 nM; IC50 (CFPAC-1): > 10000 nM; IC50 (BPH-1): 7440 nM; IC50 (RPMI-7951): > 10000 nM; IC50 (D-336MG): > 10000 nM
NC(=O)c1ccc(N(C(N)=O)c2c(F)cccc2F)nc1-c1ccc(F)cc1F [VX-702]	> 2000	> 2000	160	> 2000	> 2000	> 2000	> 2000	> 2000	> 2000	> 2000	> 2000	> 2000	> 2000	> 2000	> 2000	> 2000	> 2000	> 2000	> 2000	> 2000	IC50 (G-361): 1500 nM; IC50 (NCI-H2405): > 2000 nM; IC50 (D-392MG): > 2000 nM; IC50 (COLO-679): > 2000 nM; IC50 (NCI-H358): > 2000 nM; IC50 (HuO-3N1): > 2000 nM; IC50 (KP-N-YN): > 2000 nM; IC50 (DoTc2-4510): > 2000 nM; IC50 (OVCAR-8): > 2000 nM; IC50 (HCC1419): > 2000 nM; IC50 (SNU-449): > 2000 nM; IC50 (TI-73): > 2000 nM; IC50 (NCI-H2029): > 2000 nM; IC50 (EGI-1): > 2000 nM; IC50 (CFPAC-1): > 2000 nM; IC50 (BPH-1): > 2000 nM; IC50 (RPMI-7951): > 2000 nM; IC50 (D-336MG): > 2000 nM
